{"source": "patent US20110183848A1", "about": "“Piperazine Compounds With Herbicidal Effect” (BASF SE, priority 2008, published 2011)", "key": {"ECHCG": {"tested_on": "ECHCG", "assay": "greenhouse test, post-emergence treatment", "assay_type": "in vivo, Echinochloa crus-galli", "conditions": "application rate 1.0 kg/ha, scale 0 to 100", "excerpt": "(§1) The culture containers used were plastic flowerpots containing loamy sand with approximately 5.8% of humus as the substrate. The seeds of the test plants were sown separately for each species.\n(§2) For the post-emergence treatment, the test plants were first grown to a height of 3 to 15 cm, depending on the plant habit, and then treated with the active compounds which had been suspended or emulsified in water. For this purpose, the test plants were either sown directly and grown in the same containers, or they were first grown separately as seedlings and transplanted into the test containers a few days prior to treatment.\n(§3) Depending on the species, the plants were kept at 10-25° C. or 20-35° C. The test period extended over 2 to 4 weeks. During this time, the plants were tended, and their response to the individual treatments was evaluated.\n(§4) Evaluation was carried out using a scale from 0 to 100. 100 means no emergence of the plants, or complete destruction of at least the aerial moieties, and 0 means no damage, or normal course of growth. A good herbicidal activity is given at values of at least 70 and a very good herbicidal activity is given at values of at least 85.\n(§5) The plants used in the greenhouse experiments belonged to the following species: […]"}, "SETIT": {"tested_on": "SETIT", "assay": "greenhouse test, post-emergence treatment", "assay_type": "in vivo, Setaria italica", "conditions": "application rate 1.0 kg/ha, scale 0 to 100", "excerpt": "as §1, §2, §3, §4, §5"}, "SETFA [1]": {"tested_on": "SETFA", "assay": "active compound combinations, pre-emergence greenhouse test (Colby synergy)", "assay_type": "in vivo, Setaria faberi", "excerpt": "as §1\n(§6) For the pre-emergence treatment, the active compounds, which had been suspended or emulsified in water, were applied directly after sowing by means of finely distributing nozzles. The containers were irrigated gently to promote germination and growth and subsequently covered with transparent plastic hoods until the plants had rooted. This cover caused uniform germination of the test plants, unless this has been impaired by the active compounds.\n(§7) The respective stated components A and B were formulated as a 5% by weight strength or 10% by weight strength emulsion concentrate, or a commercial formulation of component B was used, and, with addition of the amount of solvent system, introduced into the spray liquor used for applying the active compound. In the examples, the solvent used was water.\n(§8) The test period extended over 20 or 21 days. During this time, the plants were tended, and their reactions to the treatments with the active compounds were monitored.\n(§9) In the examples below, using the method of S. R. Colby (1967) “Calculating synergistic and antagonistic responses of herbicide combinations”, Weeds 15, p. 22ff., the value E, which is expected when the activity of the individual active compounds is only additive, was calculated.\n(§10) If the value determined experimentally is higher than the value E calculated according to Colby, a synergistic effect is present.\n(§11) Here, a.s.=active substance, based on 100% active compound. In the use examples 15 and 16, the values E calculated according to Colby are stated in brackets) ( ).\n(§12) What was evaluated was the damage by the chemical compositions using a scale of from 0 to 100%, in comparison to the untreated control plants. 0 means no damage, and 100 means complete destruction of the plants."}, "ALOMY": {"tested_on": "ALOMY", "assay": "active compound combinations, pre-emergence greenhouse test (Colby synergy)", "assay_type": "in vivo, Alopecurus myosuroides", "excerpt": "as §1, §6, §7, §8, §9, §10, §11, §12"}, "LOLMU": {"tested_on": "LOLMU", "assay": "active compound combinations, pre-emergence greenhouse test (Colby synergy)", "assay_type": "in vivo, Lolium multiflorum", "excerpt": "as §1, §6, §7, §8, §9, §10, §11, §12"}, "SETFA [2]": {"tested_on": "SETFA", "assay": "greenhouse test, post-emergence treatment", "assay_type": "in vivo, Setaria faberi", "conditions": "application rate 1.0 kg/ha, scale 0 to 100", "excerpt": "as §1, §2, §3, §4, §5"}, "CHEAL": {"tested_on": "CHEAL", "assay": "greenhouse test, post-emergence treatment", "assay_type": "in vivo, Chenopodium album", "conditions": "application rate 0.5 kg/ha, scale 0 to 100", "excerpt": "as §1, §2, §3, §4, §5"}, "[3]": {"conditions": "use example 14, application rate a.s. 3.12 g/ha"}, "[4]": {"conditions": "use example 14, application rate a.s. 25 g/ha"}, "[5]": {"conditions": "use example 14, application rate a.s. 12.5 g/ha"}, "[6]": {"conditions": "use example 14, application rate a.s. 31.25 g/ha"}, "[7]": {"conditions": "use example 14, application rate a.s. 125 g/ha"}, "[8]": {"conditions": "use example 14, application rate a.s. 250 g/ha"}, "[9]": {"conditions": "use example 14, application rate a.s. 62.5 g/ha"}}, "data": [{"smiles": "C=CCCN1C(=O)C(=Cc2ccccc2C#N)N(C)C(=O)C1(C)Cc1ccccc1", "note": "(stereo not drawn) [I-19]", "values": [{"measurement": "herbicidal activity against ECHCG", "setting": "ECHCG", "result": "very good (a very good herbicidal activity is given at values of at least 85)"}, {"measurement": "herbicidal activity against SETIT", "setting": "SETIT", "result": "very good (a very good herbicidal activity is given at values of at least 85)"}]}, {"smiles": "Cn1nc(C(F)(F)F)c(CS(=O)(=O)C2=NOC(C)(C)C2)c1OC(F)F", "note": "[pyroxasulfone]", "values": [{"measurement": "Herbicidal activity in % after 20 days against SETFA", "setting": "SETFA [1]; [3]", "result": 0, "unit": "%"}, {"measurement": "Herbicidal activity in % after 20 days against SETFA", "setting": "SETFA [1]; use example 14, application rate a.s. 6.25 g/ha", "result": 25, "unit": "%"}, {"measurement": "Herbicidal activity in % after 20 days against SETFA", "setting": "SETFA [1]; [4]", "result": 95, "unit": "%"}, {"measurement": "Herbicidal activity in % after 20 days against ALOMY", "setting": "ALOMY; [3]", "result": 25, "unit": "%"}, {"measurement": "Herbicidal activity in % after 20 days against ALOMY", "setting": "ALOMY; [5]", "result": 95, "unit": "%"}, {"measurement": "Herbicidal activity in % after 20 days against ALOMY", "setting": "ALOMY; [4]", "result": 95, "unit": "%"}, {"measurement": "Herbicidal activity in % after 20 days against LOLMU", "setting": "LOLMU; [3]", "result": 15, "unit": "%"}, {"measurement": "Herbicidal activity in % after 20 days against LOLMU", "setting": "LOLMU; [5]", "result": 75, "unit": "%"}, {"measurement": "Herbicidal activity in % after 20 days against LOLMU", "setting": "LOLMU; [4]", "result": 80, "unit": "%"}]}, {"smiles": "CCNc1nc(Cl)nc(NC(C)C)n1", "note": "[atrazine]", "values": [{"measurement": "Herbicidal activity in % after 20 days against ALOMY", "setting": "ALOMY; application rate a.s. 125 g/ha", "result": 35, "unit": "%"}, {"measurement": "Herbicidal activity in % after 20 days against ALOMY", "setting": "ALOMY; application rate a.s. 250 g/ha", "result": 65, "unit": "%"}, {"measurement": "Herbicidal activity in % after 20 days against LOLMU", "setting": "LOLMU; application rate a.s. 125 g/ha", "result": 0, "unit": "%"}, {"measurement": "Herbicidal activity in % after 20 days against LOLMU", "setting": "LOLMU; application rate a.s. 250 g/ha", "result": 20, "unit": "%"}]}, {"smiles": "CCOc1ncccc1CC1C(=O)N(COC)C(C)(Cc2ccccc2)C(=O)N1C", "note": "(stereo not drawn) [II-26]", "values": [{"measurement": "Herbicidal activity in % after 20 days against SETFA", "setting": "SETFA [1]; [6]", "result": 10, "unit": "%"}, {"measurement": "Herbicidal activity in % after 20 days against SETFA", "setting": "SETFA [1]; [7]", "result": 75, "unit": "%"}, {"measurement": "Herbicidal activity in % after 20 days against SETFA", "setting": "SETFA [1]; [8]", "result": 100, "unit": "%"}, {"measurement": "Herbicidal activity in % after 20 days against ALOMY", "setting": "ALOMY; [6]", "result": 30, "unit": "%"}, {"measurement": "Herbicidal activity in % after 20 days against ALOMY", "setting": "ALOMY; [9]", "result": 60, "unit": "%"}, {"measurement": "Herbicidal activity in % after 20 days against ALOMY", "setting": "ALOMY; [7]", "result": 90, "unit": "%"}, {"measurement": "Herbicidal activity in % after 20 days against ALOMY", "setting": "ALOMY; [8]", "result": 95, "unit": "%"}, {"measurement": "Herbicidal activity in % after 20 days against LOLMU", "setting": "LOLMU; [6]", "result": 0, "unit": "%"}, {"measurement": "Herbicidal activity in % after 20 days against LOLMU", "setting": "LOLMU; [9]", "result": 15, "unit": "%"}, {"measurement": "Herbicidal activity in % after 20 days against LOLMU", "setting": "LOLMU; [7]", "result": 98, "unit": "%"}]}, {"smiles": "CN1C(=O)C(C)(Cc2ccccc2)N(CC2CC2)C(=O)C1=Cc1ccccc1C#N", "note": "(stereo not drawn) [I-25]", "values": [{"measurement": "herbicidal activity against SETFA", "setting": "SETFA [2]", "result": "very good (a very good herbicidal activity is given at values of at least 85)"}]}, {"smiles": "CCCCCN1C(=O)C(=Cc2ccccc2C#N)N(C)C(=O)C1(C)Cc1ccccc1", "note": "(stereo not drawn) [I-21]", "values": [{"measurement": "herbicidal activity against CHEAL", "setting": "CHEAL", "result": "very good (a very good herbicidal activity is given at values of at least 85)"}]}]}
